Test results from PMC5564600 (Oncotarget, 2017).

Assays:
Test in all cases: biochemical
Type in all cases: binding
panel of 442 kinases [1] = molecular target: T1, panel of 442 kinases (Homo sapiens, UniProt O00238); details: BMPR1B; for remaining activity at 1 µM: read-out: % of control at 1 µM
T1 construct: purchased Ambit Biosciences (scanMAXX KINOMEscan)

panel of 442 kinases [2] = molecular target: T2, panel of 442 kinases (Homo sapiens, UniProt Q9BVS4); details: kinase RIOK2; for remaining activity at 1 µM: read-out: RIOK2 (% of control at 1 µM)
T2 construct: purchased Ambit Biosciences (scanMAXX KINOMEscan)

panel of 442 kinases [3] = molecular target: T3, panel of 442 kinases (Homo sapiens, UniProt Q16513); details: kinase PKN2; for remaining activity at 1 µM: read-out: PKN2 (% of control at 1 µM)
T3 construct: purchased Ambit Biosciences (scanMAXX KINOMEscan)

panel of 442 kinases [4] = molecular target: T4, panel of 442 kinases (Homo sapiens, UniProt Q9H2G2); details: kinase SLK; for remaining activity at 1 µM: read-out: SLK (% of control at 1 µM)
T4 construct: purchased Ambit Biosciences (scanMAXX KINOMEscan)

panel of 442 kinases [5] = molecular target: T5, panel of 442 kinases (Homo sapiens, UniProt Q9Y2H9); details: kinase MAST1; for remaining activity at 1 µM: read-out: % of control at 1 µM
T5 construct: purchased Ambit Biosciences (scanMAXX KINOMEscan)

panel of 442 kinases [6] = molecular target: T6, panel of 442 kinases (Homo sapiens, UniProt Q8IYT8); details: kinase ULK2; for remaining activity at 1 µM: read-out: ULK2 (% of control at 1 µM)
T6 construct: purchased Ambit Biosciences (scanMAXX KINOMEscan)
T6 sequence (Q8IYT8 1-1036): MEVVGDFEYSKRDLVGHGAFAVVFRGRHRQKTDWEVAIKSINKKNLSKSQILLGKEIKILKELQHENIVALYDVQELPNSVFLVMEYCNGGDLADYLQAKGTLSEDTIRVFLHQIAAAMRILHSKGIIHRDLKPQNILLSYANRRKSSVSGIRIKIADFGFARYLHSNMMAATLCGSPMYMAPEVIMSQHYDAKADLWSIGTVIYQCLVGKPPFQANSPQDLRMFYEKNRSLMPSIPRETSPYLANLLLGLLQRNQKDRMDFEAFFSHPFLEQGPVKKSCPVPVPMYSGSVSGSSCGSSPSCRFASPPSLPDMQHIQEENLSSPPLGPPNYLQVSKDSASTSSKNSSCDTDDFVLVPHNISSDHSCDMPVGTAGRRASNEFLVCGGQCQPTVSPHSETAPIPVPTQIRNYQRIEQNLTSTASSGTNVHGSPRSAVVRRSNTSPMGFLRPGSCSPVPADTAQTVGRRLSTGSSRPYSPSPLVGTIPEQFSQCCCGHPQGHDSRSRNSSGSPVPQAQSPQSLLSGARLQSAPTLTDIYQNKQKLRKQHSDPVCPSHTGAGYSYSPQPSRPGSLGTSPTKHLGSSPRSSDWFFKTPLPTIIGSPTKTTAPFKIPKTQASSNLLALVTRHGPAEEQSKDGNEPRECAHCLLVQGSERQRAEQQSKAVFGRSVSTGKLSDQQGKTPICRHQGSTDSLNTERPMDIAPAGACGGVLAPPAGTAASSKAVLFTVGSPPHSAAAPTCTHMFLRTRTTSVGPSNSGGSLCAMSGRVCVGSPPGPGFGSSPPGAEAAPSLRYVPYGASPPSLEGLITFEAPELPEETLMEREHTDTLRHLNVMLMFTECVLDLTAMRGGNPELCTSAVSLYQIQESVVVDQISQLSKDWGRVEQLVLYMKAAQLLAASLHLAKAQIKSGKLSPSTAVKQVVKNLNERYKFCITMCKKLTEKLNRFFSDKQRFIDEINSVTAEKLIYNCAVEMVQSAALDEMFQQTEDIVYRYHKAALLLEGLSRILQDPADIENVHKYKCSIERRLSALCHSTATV

panel of 442 kinases [7] = molecular target: T7, panel of 442 kinases (Homo sapiens, UniProt Q13555); details: CAMK2G; for remaining activity at 1 µM: read-out: % of control at 1 µM
T7 construct: purchased Ambit Biosciences (scanMAXX KINOMEscan)

panel of 442 kinases [8] = molecular target: T8, panel of 442 kinases (Homo sapiens, UniProt P53667); details: kinase LIMK1; for remaining activity at 1 µM: read-out: % of control at 1 µM
T8 construct: purchased Ambit Biosciences (scanMAXX KINOMEscan)

panel of 442 kinases [9] = molecular target: T9, panel of 442 kinases (Homo sapiens, UniProt Q00526); details: CDK3; for remaining activity at 1 µM: read-out: % of control at 1 µM
T9 construct: purchased Ambit Biosciences (scanMAXX KINOMEscan)

panel of 442 kinases [10] = molecular target: T10, panel of 442 kinases (Homo sapiens, UniProt P43405); details: kinase SYK; for remaining activity at 1 µM: read-out: SYK (% of control at 1 µM)
T10 construct: purchased Ambit Biosciences (scanMAXX KINOMEscan)

panel of 442 kinases [11] = molecular target: T11, panel of 442 kinases (Homo sapiens, UniProt P31749); details: AKT1; for remaining activity at 1 µM: read-out: % of control at 1 µM
T11 construct: purchased Ambit Biosciences (scanMAXX KINOMEscan)

panel of 442 kinases [12] = molecular target: T12, panel of 442 kinases (Homo sapiens, UniProt Q9UBE8); details: kinase NLK; for remaining activity at 1 µM: read-out: % of control at 1 µM
T12 construct: purchased Ambit Biosciences (scanMAXX KINOMEscan)
T12 sequence (Q9UBE8 1-527): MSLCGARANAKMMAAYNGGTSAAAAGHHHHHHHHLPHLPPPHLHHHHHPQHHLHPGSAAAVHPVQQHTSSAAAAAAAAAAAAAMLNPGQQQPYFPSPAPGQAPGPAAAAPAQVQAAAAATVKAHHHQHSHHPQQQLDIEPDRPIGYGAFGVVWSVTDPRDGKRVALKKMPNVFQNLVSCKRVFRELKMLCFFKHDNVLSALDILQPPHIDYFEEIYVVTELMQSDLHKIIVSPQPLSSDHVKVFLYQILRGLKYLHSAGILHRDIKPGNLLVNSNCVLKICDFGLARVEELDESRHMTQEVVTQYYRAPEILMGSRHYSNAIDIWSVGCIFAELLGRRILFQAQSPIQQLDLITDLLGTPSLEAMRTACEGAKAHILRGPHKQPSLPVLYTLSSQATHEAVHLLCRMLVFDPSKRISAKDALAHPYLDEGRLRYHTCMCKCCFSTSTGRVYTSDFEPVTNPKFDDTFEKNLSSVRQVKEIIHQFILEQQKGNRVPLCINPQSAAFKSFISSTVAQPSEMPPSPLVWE

[13] = 10 µM, read-out: % of control at 10 µM

T2 sequence (Q9BVS4 whole entry): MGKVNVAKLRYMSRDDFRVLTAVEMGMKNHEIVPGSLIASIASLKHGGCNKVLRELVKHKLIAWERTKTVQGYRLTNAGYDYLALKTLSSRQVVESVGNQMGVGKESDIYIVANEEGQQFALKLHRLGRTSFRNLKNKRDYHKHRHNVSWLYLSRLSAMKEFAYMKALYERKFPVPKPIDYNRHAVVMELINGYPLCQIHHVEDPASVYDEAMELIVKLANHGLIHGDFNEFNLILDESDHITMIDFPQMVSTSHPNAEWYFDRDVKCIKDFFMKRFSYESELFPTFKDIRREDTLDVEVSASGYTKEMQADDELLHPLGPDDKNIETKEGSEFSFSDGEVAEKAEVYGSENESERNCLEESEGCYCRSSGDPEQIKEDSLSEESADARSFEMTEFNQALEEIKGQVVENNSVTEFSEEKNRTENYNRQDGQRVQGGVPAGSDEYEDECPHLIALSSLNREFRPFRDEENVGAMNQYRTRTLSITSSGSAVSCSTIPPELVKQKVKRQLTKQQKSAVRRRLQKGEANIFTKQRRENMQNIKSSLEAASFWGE
T7 sequence (Q13555 whole entry): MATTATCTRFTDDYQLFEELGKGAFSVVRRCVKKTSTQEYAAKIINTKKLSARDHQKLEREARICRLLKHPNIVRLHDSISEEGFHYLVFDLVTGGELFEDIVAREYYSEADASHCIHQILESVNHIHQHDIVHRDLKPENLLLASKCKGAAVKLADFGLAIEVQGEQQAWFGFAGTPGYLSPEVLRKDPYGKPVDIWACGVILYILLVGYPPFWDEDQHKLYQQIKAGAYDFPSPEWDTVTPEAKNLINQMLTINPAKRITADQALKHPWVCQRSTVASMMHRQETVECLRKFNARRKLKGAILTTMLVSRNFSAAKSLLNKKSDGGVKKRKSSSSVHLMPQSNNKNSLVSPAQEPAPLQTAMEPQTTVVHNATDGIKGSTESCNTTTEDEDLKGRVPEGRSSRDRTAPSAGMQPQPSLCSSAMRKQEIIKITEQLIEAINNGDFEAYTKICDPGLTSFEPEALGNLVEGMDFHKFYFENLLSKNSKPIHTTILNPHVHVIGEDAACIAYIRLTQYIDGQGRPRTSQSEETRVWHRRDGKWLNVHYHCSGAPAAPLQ
T1 sequence (O00238 14-502): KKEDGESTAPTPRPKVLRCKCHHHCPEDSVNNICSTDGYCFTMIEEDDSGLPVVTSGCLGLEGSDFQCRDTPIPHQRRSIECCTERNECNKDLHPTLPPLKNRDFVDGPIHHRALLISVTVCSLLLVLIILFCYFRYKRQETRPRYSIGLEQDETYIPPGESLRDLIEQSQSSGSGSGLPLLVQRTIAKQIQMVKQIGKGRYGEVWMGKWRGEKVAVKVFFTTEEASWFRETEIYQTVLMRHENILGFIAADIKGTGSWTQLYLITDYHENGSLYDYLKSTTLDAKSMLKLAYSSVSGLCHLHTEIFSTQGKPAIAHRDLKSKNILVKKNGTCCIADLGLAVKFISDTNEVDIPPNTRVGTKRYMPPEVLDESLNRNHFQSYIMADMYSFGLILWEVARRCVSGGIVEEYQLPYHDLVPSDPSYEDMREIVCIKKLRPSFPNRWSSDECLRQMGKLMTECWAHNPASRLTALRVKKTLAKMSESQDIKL
T3 sequence (Q16513 whole entry): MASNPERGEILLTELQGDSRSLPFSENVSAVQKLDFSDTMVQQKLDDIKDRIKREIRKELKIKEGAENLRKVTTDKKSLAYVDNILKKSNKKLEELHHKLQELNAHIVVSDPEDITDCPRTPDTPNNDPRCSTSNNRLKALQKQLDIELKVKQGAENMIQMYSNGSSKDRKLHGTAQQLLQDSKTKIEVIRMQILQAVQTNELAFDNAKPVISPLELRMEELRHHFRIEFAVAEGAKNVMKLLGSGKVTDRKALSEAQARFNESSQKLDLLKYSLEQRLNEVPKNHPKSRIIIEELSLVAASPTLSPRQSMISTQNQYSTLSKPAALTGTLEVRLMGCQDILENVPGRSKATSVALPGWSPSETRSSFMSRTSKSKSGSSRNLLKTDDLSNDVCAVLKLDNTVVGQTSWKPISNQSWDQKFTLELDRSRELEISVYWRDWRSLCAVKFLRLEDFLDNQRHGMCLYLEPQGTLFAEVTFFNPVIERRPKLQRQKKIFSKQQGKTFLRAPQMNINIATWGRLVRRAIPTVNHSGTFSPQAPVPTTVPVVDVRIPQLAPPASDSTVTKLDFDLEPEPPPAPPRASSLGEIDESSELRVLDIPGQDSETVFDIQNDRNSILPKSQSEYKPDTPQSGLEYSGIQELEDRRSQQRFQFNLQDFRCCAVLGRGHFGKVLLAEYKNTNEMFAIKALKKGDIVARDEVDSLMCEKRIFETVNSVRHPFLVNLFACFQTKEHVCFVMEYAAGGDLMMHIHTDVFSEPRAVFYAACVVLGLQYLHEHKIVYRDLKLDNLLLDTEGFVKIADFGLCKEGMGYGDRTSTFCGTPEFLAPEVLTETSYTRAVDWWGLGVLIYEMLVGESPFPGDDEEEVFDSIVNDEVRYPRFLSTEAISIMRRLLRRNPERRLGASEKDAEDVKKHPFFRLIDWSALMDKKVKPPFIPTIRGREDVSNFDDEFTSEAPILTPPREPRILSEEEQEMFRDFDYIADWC
T8 sequence (P53667 whole entry): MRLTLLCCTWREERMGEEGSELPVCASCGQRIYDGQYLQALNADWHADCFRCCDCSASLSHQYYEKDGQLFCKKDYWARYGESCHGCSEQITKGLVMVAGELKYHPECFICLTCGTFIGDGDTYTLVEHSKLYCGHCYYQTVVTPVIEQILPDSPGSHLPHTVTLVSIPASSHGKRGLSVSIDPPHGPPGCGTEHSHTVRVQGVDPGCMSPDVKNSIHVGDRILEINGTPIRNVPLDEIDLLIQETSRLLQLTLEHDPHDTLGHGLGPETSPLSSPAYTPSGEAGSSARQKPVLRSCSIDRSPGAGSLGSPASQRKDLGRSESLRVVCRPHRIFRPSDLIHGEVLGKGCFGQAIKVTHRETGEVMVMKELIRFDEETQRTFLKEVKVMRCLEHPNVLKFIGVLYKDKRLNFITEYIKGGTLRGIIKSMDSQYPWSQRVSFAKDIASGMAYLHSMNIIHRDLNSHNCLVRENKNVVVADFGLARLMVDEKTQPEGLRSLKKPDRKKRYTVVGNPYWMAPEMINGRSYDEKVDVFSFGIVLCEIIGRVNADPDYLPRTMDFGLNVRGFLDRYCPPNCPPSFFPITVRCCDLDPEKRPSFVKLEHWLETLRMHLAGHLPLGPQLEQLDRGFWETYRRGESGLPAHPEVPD
T9 sequence (Q00526 whole entry): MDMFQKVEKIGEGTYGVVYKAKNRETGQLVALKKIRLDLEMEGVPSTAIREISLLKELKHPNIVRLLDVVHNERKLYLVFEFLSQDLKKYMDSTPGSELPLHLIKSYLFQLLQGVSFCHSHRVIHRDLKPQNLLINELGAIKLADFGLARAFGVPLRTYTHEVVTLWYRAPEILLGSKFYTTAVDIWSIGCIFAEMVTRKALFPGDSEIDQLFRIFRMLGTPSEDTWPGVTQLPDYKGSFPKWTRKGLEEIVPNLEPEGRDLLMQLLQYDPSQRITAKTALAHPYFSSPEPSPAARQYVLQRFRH
T11 sequence (P31749 whole entry): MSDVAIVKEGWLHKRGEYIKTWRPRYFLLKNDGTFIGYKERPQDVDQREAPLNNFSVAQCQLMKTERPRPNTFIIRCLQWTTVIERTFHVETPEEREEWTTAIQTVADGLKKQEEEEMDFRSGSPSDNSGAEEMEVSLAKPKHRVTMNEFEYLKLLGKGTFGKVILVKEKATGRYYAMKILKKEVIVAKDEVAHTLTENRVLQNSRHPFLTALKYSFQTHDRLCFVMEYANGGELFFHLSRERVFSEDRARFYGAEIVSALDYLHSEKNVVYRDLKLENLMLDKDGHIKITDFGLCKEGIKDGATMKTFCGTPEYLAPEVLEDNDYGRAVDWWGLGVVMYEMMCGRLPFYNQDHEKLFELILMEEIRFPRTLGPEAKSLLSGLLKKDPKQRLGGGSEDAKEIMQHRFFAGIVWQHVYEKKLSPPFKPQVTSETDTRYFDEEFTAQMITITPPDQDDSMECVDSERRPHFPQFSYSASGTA

Compound | remaining activity at 1 µM (panel of 442 kinases [1]) [%] | remaining activity at 1 µM (panel of 442 kinases [2]) [%] | remaining activity at 1 µM (panel of 442 kinases [3]) [%] | remaining activity at 1 µM (panel of 442 kinases [4]) [%] | remaining activity at 1 µM (panel of 442 kinases [5]) [%] | remaining activity at 1 µM (panel of 442 kinases [6]) [%] | remaining activity at 1 µM (panel of 442 kinases [7]) [%] | remaining activity at 1 µM (panel of 442 kinases [8]) [%] | remaining activity at 1 µM (panel of 442 kinases [9]) [%] | remaining activity at 1 µM (panel of 442 kinases [10]) [%] | remaining activity at 1 µM (panel of 442 kinases [11]) [%] | remaining activity at 1 µM (panel of 442 kinases [12]) [%] | other results
Nc1cc(C(F)(F)F)c(-c2cc(N3CCOCC3)nc(N3CCOCC3)n2)cn1 [Buparlisib] | 100 | 100 | 83 | 100 | 53 | 86 | 100 | 100 | 100 | 98 | 94 | 93 | remaining activity at 10 µM (panel of 442 kinases [1]; [13]): 100%; remaining activity at 10 µM (panel of 442 kinases [2]; 10 µM, read-out: RIOK2 (% of control at 10 µM)): 100%; remaining activity at 10 µM (panel of 442 kinases [3]; 10 µM, read-out: PKN2 (% of control at 10 µM)): 100%; remaining activity at 10 µM (panel of 442 kinases [4]; 10 µM, read-out: SLK (% of control at 10 µM)): 100%; remaining activity at 10 µM (panel of 442 kinases [5]; [13]): 73%; remaining activity at 10 µM (panel of 442 kinases [6]; 10 µM, read-out: ULK2 (% of control at 10 µM)): 100%; remaining activity at 10 µM (panel of 442 kinases [7]; [13]): 100%; remaining activity at 10 µM (panel of 442 kinases [8]; [13]): 100%; remaining activity at 10 µM (panel of 442 kinases [9]; [13]): 100%; remaining activity at 10 µM (panel of 442 kinases [10]; 10 µM, read-out: SYK (% of control at 10 µM)): 100%; remaining activity at 10 µM (panel of 442 kinases [11]; [13]): 100%; remaining activity at 10 µM (panel of 442 kinases [12]; [13]): 100%
Cn1c(=O)n(-c2ccc(C(C)(C)C#N)cc2)c2c3cc(-c4cnc5ccccc5c4)ccc3ncc21 [Dactolisib, 2-methyl-2-[4-(3-methyl-2-oxo-8-quinolin-3-yl-2,3-dihydroimidazo[4,5-c]quinolin-1-yl)-phenyl] propionitrile] | 91 | 65 | 92 | 89 | 100 | 93 | 88 | 99 | 100 | 100 | 100 | 81 | –
COc1ncc(-c2ccc3nccc(-c4ccnnc4)c3c2)cc1NS(=O)(=O)c1ccc(F)cc1F [Omipalisib] | 87 | 100 | 100 | 100 | 100 | 100 | 100 | 100 | 82 | 100 | 59 | 95 | –
FC(F)c1nc2ccccc2n1-c1nc(N2CCOCC2)nc(N2CCOCC2)n1 [ZSTK474, 2-(difluoromethyl)-1-[4,6-di(4-morpholinyl)-1,3,5-triazin-2-yl]-1H-benzimidazole] | 94 | 39 | 100 | 100 | 100 | 100 | 100 | 95 | 100 | 100 | 100 | 84 | –
